From patent US7897774B2, “Cyclic compound having quinolylalkylthio group” (Santen Pharmaceutical Co., Ltd., priority 2005, dated 2011)

test system: VEGF-induced HUVEC proliferation; assay: VEGF-induced HUVEC proliferation reaction evaluation system (cell proliferation inhibitory action test, WST-8); type: cell-based, human; conditions: HUVEC 2×10^3 cells per well in 100 μL; 5 μL of 20 μg/mL test compound solution per well; 5 μL of 400 ng/mL VEGF solution; WST-8 three days after VEGF, absorbance at 450 nm; control 1.0% DMSO
Description: In order to find the usefulness of the compound of the present invention, a test for inhibitory effects of the compound of the present invention on cell proliferation was carried out using a VEGF-induced HUVEC proliferation reaction evaluation system (HUVEC: human umbilical vein endothelial cells), which is a method of evaluating antiangiogenic effects of drugs, and the antiangiogenic effects of the compound were evaluated.
As one of the widely used methods of evaluating antiangiogenic effects of drugs, a cell proliferation inhibitory action test using a VEGF-induced HUVEC proliferation reaction evaluation system has been reported in Cancer Res., 59, 99-106 (1999). According to the method described in the above-mentioned document, a cell proliferation inhibitory action test of the compounds of the present invention was carried out, and the cell proliferation inhibition rate was calculated. Then, the antiangiogenic effect of each of the compounds of the present invention was evaluated using the obtained rate as an index.
Each test compound was dissolved in dimethyl sulfoxide (hereinafter abbreviated as DMSO), and the obtained solution was diluted with a commercially available phosphate buffer solution (hereinafter abbreviated as PBS), whereby a 20 μg/mL test compound solution was prepared.
HUVEC was suspended in F12K medium containing 0.5% fetal bovine serum (hereinafter abbreviated as FBS), whereby a 2×10^4 cells/mL HUVEC suspension was prepared.
VEGF was dissolved in PBS containing 0.1% bovine serum albumin, and the obtained solution was diluted with F12K medium containing 0.5% FBS, whereby a 400 ng/mL VEGF solution was prepared.
1) The HUVEC suspension was inoculated in an amount of 100 μL into each well of a 96-well plate coated with type I collagen (2×10^3 cells per well).
2) One day after the inoculation, the test compound solution was added in an amount of 5 μL per well.
3) One hour after the addition of the test compound solution, the VEGF solution was added in an amount of 5 μL per well.
4) Three days after the addition of the VEGF solution, WST-8 assay reagent (Dojin Chemical Co., Ltd.) was added in an amount of 10 μL per well.
5) After 3 hours, the above-mentioned plate was attached to an absorptiometer (Multilabel Counter ARVO), and an absorbance at 450 nm of suspension in each well (hereinafter referred to as a test compound suspension) was measured.
6) A test was carried out in the same manner as in the above 1) to 5) except that 1.0% DMSO was used instead of the test compound solution. The result was used as a control.
Incubation was carried out under conditions of 37° C., 5% carbon dioxide and […] in an incubator throughout the above-mentioned test steps.
The cell proliferation inhibition rate (%), which was used as an index of an antiangiogenic effect, was calculated using the following calculation equation.
(Calculation Equation) Cell proliferation inhibition rate (%)=100−{(Absorbance of test compound suspension−A)/(absorbance of control−A)}×100 A: Absorbance of only cell suspension (cells+medium) (Test Results and Discussion)

| Compound | Cell proliferation inhibition rate (%) |
| --- | --- |
| Cc1cc(C)cc(NC(=O)c2cccnc2SCc2cc[n+]([O-])c3ccccc23)c1 [Compound 1-35, N-(3,5-Dimethylphenyl)-2-(1-oxoquinolin-4-ylmethylthio)pyridine-3-carboxamide] | 100% |

same assay, conditions: Homo sapiens, 72 h; HUVEC 2×10^3 cells per well in 100 μL; 5 μL of 20 μg/mL test compound solution per well; 5 μL of 400 ng/mL VEGF solution; WST-8 three days after VEGF, absorbance at 450 nm; control 1.0% DMSO; read-out: Cell proliferation inhibition rate (%)

| Compound | inhibition at 20 µg/mL (stock) |
| --- | --- |
| O=C(Nc1ccc(Cl)cc1)c1cccnc1SCc1ccnc2ccccc12 [Compound 1-1, N-(4-Chlorophenyl)-2-(quinolin-4-ylmethylthio)pyridine-3-carboxamide] | 100% |
| Cc1cc(C)cc(NC(=O)c2cccnc2SCc2ccnc3ccccc23)c1 [Compound 1-3, N-(3,5-Dimethylphenyl)-2-(quinolin-4-ylmethylthio)pyridine-3-carboxamide] | 100% |
| COc1ccc(CCNC(=O)c2ccccc2SCc2ccnc3ccccc23)cc1 [Compound 1-26, N-[2-(4-Methoxyphenyl)ethyl]-2-(quinolin-4-ylmethylthio)benzamide] | 97% |
| COc1cc2nccc(CSc3ncccc3C(=O)Nc3cc(C)cc(C)c3)c2cc1OC [Compound 1-30, 2-(6,7-Dimethoxyquinolin-4-ylmethylthio)-N-(3,5-dimethylphenyl)pyridine-3-carboxamide] | 70% |
| COc1cc2nccc(CSc3ncccc3C(=O)Nc3cccc(Cl)c3)c2cc1OC [Compound 1-31, N-(3-Chlorophenyl)-2-(6,7-dimethoxyquinolin-4-ylmethylthio)pyridine-3-carboxamide] | 88% |
| Cc1cccc(NC(=O)c2cccnc2SCc2ccnc3cc(Cl)c(Cl)cc23)c1 [Compound 1-33, 2-(6,7-Dichloroquinolin-4-ylmethylthio)-N-(3-methylphenyl)pyridine-3-carboxamide] | 100% |
| Cc1cc(C)cc(NC(=O)c2cccnc2SCc2ccc3ncccc3c2)c1 [Compound 1-36, N-(3,5-Dimethylphenyl)-2-(quinolin-6-ylmethylthio)pyridine-3-carboxamide] | 100% |
| O=C(Nc1cccc(Cl)c1)c1cccnc1SCc1ccc2ncccc2c1 [Compound 1-38, N-(3-Chlorophenyl)-2-(quinolin-6-ylmethylthio)pyridine-3-carboxamide] | 100% |
| Cc1cc(C)cc(NC(=O)c2cccnc2SCc2cnc3ccccc3c2)c1 [Compound 1-39, N-(3,5-Dimethylphenyl)-2-(quinolin-3-ylmethylthio)pyridine-3-carboxamide] | 100% |
| O=C(Nc1ccc(OC(F)(F)F)cc1)c1cccnc1SCc1ccnc2ccccc12 [Compound 2-1, 2-(Quinolin-4-ylmethylthio)-N-(4-trifluoromethoxyphenyl)pyridine-3-carboxamide] | 100% |
| Cc1cc(C)cc(NC(=O)c2ccccc2SCc2ccnc3ccccc23)c1 [Compound 2-2, N-(3,5-Dimethylphenyl)-2-(quinolin-4-ylmethylthio)benzamide] | 100% |
| O=C(Nc1ccc(Cl)cc1)c1ccccc1SCc1ccnc2ccccc12 [Compound 2-3, N-(4-Chlorophenyl)-2-(quinolin-4-ylmethylthio)benzamide] | 100% |
| Cc1cc(C)cc(NC(=O)c2sccc2SCc2ccnc3ccccc23)c1 [Compound 2-8, N-(3,5-Dimethylphenyl)-3-(quinolin-4-ylmethylthio)thiophene-2-carboxamide] | 100% |
